Reference: patent US5288723A, “A composition and a method of using veratridine and epinephrine as a local anesthetic” (priority 1991, dated 1994)
Entries after “also recorded” stand apart in the source; their conditions may differ.

Columns and labels:
[1] = Toxic signs (salivation) in rats after sciatic nerve injection; assay type: in vivo, Male Sprague-Dawley rats; settings: co-injection of VTD with EPI
Method: Male Sprague-Dawley rats (200-250 g) were divided into 4 groups of 10 each. 0.1 ml of VTD alone at 0.2, 0.5 or 0.7 mM or vehicle (saline) was injected at the depression between the femoral head and the hip. The same animals were injected with VTD with epinephrine (EPI, 1:200,000) one week later, using the previously uninjected leg. Motor and sensory functions were rated by the respective monitoring of toe curling and/or foot dragging, and by testing the nocifensive withdrawal reflex to pinch of the foot pad of the injected hindlimb. Saline alone affected neither function.

[2] = test system: rat sciatic nerve; experiment: Motor block of rat sciatic nerve in vivo (toe curling and/or foot dragging); design: species or system Male Sprague-Dawley rats
[3] = test system: rat sciatic nerve; experiment: Sensory block of rat sciatic nerve in vivo (nocifensive withdrawal reflex to pinch of the foot pad); design: species or system Male Sprague-Dawley rats; settings: 2%=74 mM

CNC[C@H](O)c1ccc(O)c(O)c1 [EPI, epinephrine]
Effect of EPI co-injection on VTD toxicity [1]: decrease VTD-associated toxicity; also recorded: decreases the toxicity associated with higher concentrations of VTD

CCCCN1CCCCC1C(=O)Nc1c(C)cccc1C (stereo not shown) [bupivacaine]
Motor blockade duration ([2]; 0.75%=23 mM): 161 min
Motor blockade onset ([2]; 0.75%=23 mM): 4.8 min
Motor blockade, % of rats tested ([2]; 0.75%=23 mM): 86%
Motor blockade, fraction of rats tested ([2]; 0.75%=23 mM): 205/239

CCN(CC)CC(=O)Nc1c(C)cccc1C [lidocaine]
Motor blockade duration ([2]; 2%=74 mM): 75 min
Motor blockade onset ([2]; 2%=74 mM): 1.9 min
Motor blockade, % of rats ([2]; 2%=74 mM): 96%
Motor blockade, fraction of rats ([2]; 2%=74 mM): 216/224
Sensory blockade duration [3]: 78 min
Sensory blockade onset [3]: 1.3 min
Sensory blockade, % of rats [3]: 100%
Sensory blockade, fraction of rats [3]: 5/5
